Laboratory results as given in US8334315B2, “Substituted aromatic carboxamide and urea derivatives as vanilloid receptor ligands” (Gruenenthal GmbH, priority 2009, dated 2012).

What was measured:
hVR1 [1] = target: T1, hVR1 (Homo sapiens, UniProt Q8NER1); assay: Functional test on hVR1 after pH stimulus; type: cell-based, human being; design: key to IC50 (human being) hVR1, pH: agonist / partial agonist / no effect: AG=agonist; pAG=partial agonist; NE=no effect; settings: for inhibition at 10 µM: read-out: IC50 (human being) hVR1, pH: inhibition (as a percentage)
T1 construct: expressed in transfected cells; host or cells: CHO K1 cells (ECACC), stably transfected

hVR1 [2] = target: T1, hVR1; assay: Functional test on human VR1, 45° C. stimulus; type: cell-based, human being; design: key to IC50 (human being), 45° C.: agonist / partial agonist / no effect: AG=agonist; pAG=partial agonist; NE=no effect
hVR1 [3] = target: T1, hVR1; assay: Functional test on human VR1, NADA (N-arachidonoyl dopamine) stimulus; type: cell-based, human being; design: key to Ki (human being) NADA: agonist / partial agonist / no effect: AG=agonist; pAG=partial agonist; NE=no effect; settings: for Ki: includes values given in brackets after pAG, read-out: Ki (human being) [nM] NADA
Text: II. Functional Tests Carried Out on the Vanilloid Receptor (VR1)
The agonistic or antagonistic effect of the substances to be tested on the vanilloid receptor 1 (VR1) can also be determined using the following assay. In this assay, the influx of Ca^2+ through the channel is quantified with the aid of a Ca^2+-sensitive dye (type Fluo-4, Molecular Probes Europe BV, Leiden, the Netherlands) in a fluorescent imaging plate reader (FLIPR, Molecular Devices, Sunnyvale, USA).
Chinese hamster ovary cells (CHO K1 cells, European Collection of Cell Cultures (ECACC) United Kingdom) are stably transfected with the VR1 gene. For functional testing, these cells are plated out on poly-D-lysine-coated black 96-well plates having a clear base (BD Biosciences, Heidelberg, Germany) at a density of 25,000 cells/well. The cells are incubated overnight at 37° C. and 5% CO2 in a culture medium (Ham's F12 nutrient mixture, 10% by volume of FCS (foetal calf serum), 18 μg/ml of L-proline). The next day the cells are incubated with Fluo-4 (Fluo-4 2 μM, 0.01% by volume of Pluronic F127, Molecular Probes in HBSS (Hank's buffered saline solution), Gibco Invitrogen GmbH, Karlsruhe, Germany) for 30 minutes at 37° C. Subsequently, the plates are washed three times with HBSS buffer and after further incubation for 15 minutes at RT used for Ca^2+ measurement in a FLIPR assay. The Ca^2+-dependent fluorescence is measured before and after the addition of the substances to be tested (λex wavelength=488 nm, λem=540 nm). Quantification is carried out by measuring the highest fluorescence intensity (FC, fluorescence counts) over time.
The FLIPR protocol consists of 2 substance additions. First the compounds to be tested (10 μM) are pipetted onto the cells and the Ca^2+ influx is compared with the control (capsaicin 10 μM) (% activation based on the Ca^2+ signal after the addition of 10 μM of capsaicin). […]
Desensitising agonists and antagonists led to suppression of the Ca^2+ influx. The % inhibition is calculated compared to the maximum achievable inhibition with 10 μM of capsaicin.
Starting from the percentage displacement caused by different concentrations of the compounds to be tested of general formula I, IC50 inhibitory concentrations which cause a 50-per cent displacement of capsaicin were calculated. Ki values for the test substances were obtained by conversion by means of the Cheng-Prusoff equation (Cheng, Prusoff; Biochem. Pharmacol. 22, 3099-3108, 1973).
NADA=N-arachidonoyl dopamine

NMRI mice = assay: Neuropathic pain in mice, Bennett model (chronic constriction injury, cold allodynia) (CClm); type: in vivo
Method: VI. Neuropathic Pain in Mice
Efficacy in […] pain was tested using the Bennett model (chronic constriction injury; Bennett and Xie, 1988, Pain 33: 87-107).
Three loose ligatures are tied around the right ischiadic nerve of Ketavet/Rompun-anaesthetised NMRI mice weighing 16-18 g. The animals develop hypersensitivity of the innervated paw caused by the damaged nerve, which hypersensitivity is quantified, following a recovery phase of one week, over a period of approximately three weeks by means of a cold metal plate (temperature 4° C.) (cold allodynia). The animals are observed on this plate over a period of 2 min and the withdrawal reactions of the damaged paw are counted. Based on the pre-value prior to the application of the substance, the substance's effect over a certain period of time is determined at various points in time (for example 15, 30, 45, or 60 min following application) and the resultant area under the curve (AUC) and/or the inhibition of cold allodynia at the individual measuring points is/are expressed as a percentage effect relative to the vehicle control (AUC) or to the starting value (individual measuring points). The group size is n=10, the significance of an antiallodynic effect (*=p<0.05) is determined with the aid of an analysis of variance with repeated measures and Bonferroni post hoc analysis.
CClm=Bennet model in mice

T1 sequence (Q8NER1 whole entry): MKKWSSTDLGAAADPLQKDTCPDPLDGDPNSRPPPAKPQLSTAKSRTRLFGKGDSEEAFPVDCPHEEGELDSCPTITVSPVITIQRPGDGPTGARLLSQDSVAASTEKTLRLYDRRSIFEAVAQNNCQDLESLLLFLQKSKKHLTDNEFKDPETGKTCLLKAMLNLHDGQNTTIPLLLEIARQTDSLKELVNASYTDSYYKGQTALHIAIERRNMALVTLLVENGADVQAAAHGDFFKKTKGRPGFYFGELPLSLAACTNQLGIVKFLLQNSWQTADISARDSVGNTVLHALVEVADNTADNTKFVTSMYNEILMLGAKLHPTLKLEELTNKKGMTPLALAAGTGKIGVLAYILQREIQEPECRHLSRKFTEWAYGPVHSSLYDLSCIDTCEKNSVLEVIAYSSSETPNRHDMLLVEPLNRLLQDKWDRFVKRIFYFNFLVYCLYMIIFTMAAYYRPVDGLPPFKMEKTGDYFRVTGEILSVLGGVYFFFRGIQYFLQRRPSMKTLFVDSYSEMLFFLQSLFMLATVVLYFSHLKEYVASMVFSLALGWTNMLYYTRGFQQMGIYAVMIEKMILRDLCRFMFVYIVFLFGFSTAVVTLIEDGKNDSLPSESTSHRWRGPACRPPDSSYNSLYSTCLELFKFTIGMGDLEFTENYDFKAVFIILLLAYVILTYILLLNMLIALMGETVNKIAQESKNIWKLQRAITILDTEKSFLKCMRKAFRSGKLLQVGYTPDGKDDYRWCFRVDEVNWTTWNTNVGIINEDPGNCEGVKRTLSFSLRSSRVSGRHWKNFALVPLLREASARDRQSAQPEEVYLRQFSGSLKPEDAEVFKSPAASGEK

**Q.** For `CC(C(=O)NCc1cc(C(C)(C)C)nn1-c1cccc(Cl)c1)c1ccc2c(c1)OCO2` (centres unmarked) [Example 11, 2-(benzo[d][1,3]dioxol-5-yl)-N-((3-tert-butyl-1-(3-chlorophenyl)-1H-pyrazol-5-yl)methyl)propanamide], which inhibition at 10 µM (hVR1 [1]) is on record?
**A.** 36%

**Q.** What about the “IC50 (human being), 45° C.: agonist / partial agonist / no effect” value (hVR1 [2]) of the same compound?
**A.** pAG

**Q.** And the “Ki (human being) NADA: agonist / partial agonist / no effect” value (from here on “Ki … agonist / partial agonist / no effect”) (hVR1 [3])?
**A.** pAG

**Q.** What about the “CClm (Bennett model, percentage effect on cold allodynia)” value (NMRI mice; 0.1 iv) of the same compound?
**A.** CClm 77%

**Q.** Which inhibition at 10 µM (hVR1 [1]) does the source give for `CC(C(=O)NCc1cc(C(C)(C)C)nn1-c1cccc(Cl)c1)c1ccc2c(c1)OCCO2` (centres unmarked) [Example 13, N-((3-tert-butyl-1-(3-chlorophenyl)-1H-pyrazol-5-yl)methyl)-2-(2,3-dihydrobenzo[b][1,4]dioxin-6-yl)propanamide] here?
**A.** 49%

**Q.** And the “IC50 (human being), 45° C.: agonist / partial agonist / no effect” value (hVR1 [2])?
**A.** pAG

**Q.** And the “Ki … agonist / partial agonist / no effect” value (hVR1 [3])?
**A.** pAG

**Q.** And the Ki (hVR1 [3])?
**A.** 4.3 nM

**Q.** And the “CClm (Bennett model, percentage effect on cold allodynia)” value (NMRI mice; 0.1 iv)?
**A.** CClm 85%

**Q.** Which “Ki … agonist / partial agonist / no effect” value (hVR1 [3]) does the source give for `Cc1nc2ccc(C(C)C(=O)NCc3cc(C(F)(F)F)nn3-c3cccc(Cl)c3)cc2s1` (centres unmarked) [Example 45, N-((1-(3-chlorophenyl)-3-(trifluoromethyl)-1H-pyrazol-5-yl)methyl)-2-(2-methylbenzo[d]thiazol-6-yl)propanamide] here?
**A.** pAG

**Q.** What about the Ki (hVR1 [3]) of the same compound?
**A.** 11.8 nM

**Q.** With `CC(C(=O)NCc1cc(C(F)(F)F)nn1-c1cccc(Cl)c1)c1ccc2cc(O)ccc2c1` (centres unmarked) [Example 50, N-((1-(3-chlorophenyl)-3-(trifluoromethyl)-1H-pyrazol-5-yl)methyl)-2-(6-hydroxynaphthalen-2-yl)propanamide] as the compound, how does the “IC50 (human being) hVR1, pH: agonist / partial agonist / no effect” value (hVR1 [1]) read?
**A.** pAG

**Q.** And the “IC50 (human being), 45° C.: agonist / partial agonist / no effect” value (hVR1 [2])?
**A.** pAG

**Q.** What about the “CClm (Bennett model, percentage effect on cold allodynia)” value (NMRI mice; 0.1 iv) of the same compound?
**A.** CClm 83%

**Q.** For `CC(C(=O)NCc1cc(C(F)(F)F)nn1-c1cccc(Cl)c1)c1cccc2cnccc12` (centres unmarked) [Example 64, N-((1-(3-chlorophenyl)-3-(trifluoromethyl)-1H-pyrazol-5-yl)methyl)-2-(isoquinolin-5-yl)propanamide], which IC50 (hVR1 [2]; read-out: IC50 (human being) [nM], 45° C.) is on record?
**A.** 357 nM

**Q.** What about the Ki (hVR1 [3]) of the same compound?
**A.** 0.02 nM

**Q.** What about the “CClm (Bennett model, percentage effect on cold allodynia)” value (NMRI mice; 1 iv) of the same compound?
**A.** CClm 62%

**Q.** For `CC(C)(C)c1cc(CNC(=O)Nc2ccc3c(c2)CCC3)n(-c2cccc(Cl)c2)n1` [Example 79, 1-((3-tert-butyl-1-(3-chlorophenyl)-1H-pyrazol-5-yl)methyl)-3-(2,3-dihydro-1H-inden-5-yl)urea], which inhibition at 10 µM (hVR1 [1]) is on record?
**A.** 21%

**Q.** What about the Ki (hVR1 [3]) of the same compound?
**A.** 12.6 nM

**Q.** What about the “CClm (Bennett model, percentage effect on cold allodynia)” value (NMRI mice; 1 po) of the same compound?
**A.** CClm 70%
